From patent US9775351B2, “Ternary fungicidal and pesticidal mixtures” (BAYER CROPSCIENCE AG, priority 2012, dated 2017) come the findings set out here.

The experiment has as its system Rhizoctonia solani. Briefly: Rhizoctonia test (cotton)/seed treatment. In kind it is in vivo. The note with it: greenhouse, 7 days at 20° C. On the procedure: Rhizoctonia Test (Cotton)/Seed Treatment
The test is performed under greenhouse conditions.
Commercially available disease control agents, active compounds solved in N-methyl-2-pyrrolidon, or combinations thereof were diluted with water to the desired dosages. Cotton seeds were treated with this preparations and sown in 6*6 cm pots containing 4 cm of a 1:1 mix of steamed field soil and sand, mixed with a perlite-culture of Rhizoctonia solani.
Pots were incubated in the greenhouse for 7 days at 20° C.
Assessment consisted of counting of emerged seedlings and diseased plants. 0% means an efficacy which corresponds to that of the untreated control, while an efficacy of 100% means that all seedlings have emerged and are healthy.

`CC1CC(C)(C)c2cccc(NC(=O)c3cn(C)nc3C(F)F)c21` (stereo not drawn) [(I-1), 3-(difluoromethyl)-1-methyl-N-(1,1,3-trimethyl-2,3-dihydro-1H-inden-4-yl)-1H-pyrazole-4-carboxamide]: the Efficacy in % (application rate 10 g a.i./dt) turned out to be 41%. With `CN/C(=N\[N+](=O)[O-])NCc1cnc(Cl)s1` [clothianidin], the Efficacy in % (application rate 12 g a.i./dt) was found to be 24%. As to `COCC(=O)N(c1c(C)cccc1C)C(C)C(=O)OC` (stereo not drawn) [metalaxyl], the Efficacy in % (application rate 1 g a.i./dt) was determined as 12%.
